From patent US20260355192A1, “PROPHYLACTIC OR THERAPEUTIC AGENT FOR PERIOSTIN-MEDIATED DISEASE AND PRURITUS ASSOCIATED THEREWITH” (SAGA UNIVERSITY, priority 2022, published 2026)
Blank lines part the entries; values can stand above or below the molecule they belong to.

Legend:
[1] = tested on: scratching behaviors in FADS mice; assay: Scratching behaviors in FADS mice upon single systemic administration of αvβ3 integrin inhibitors; assay type: in vivo, mouse (FADS, Nestin-cre/Ikk2ff); settings: for % Change from baseline in the number of scratchings (mean ± standard error): 53.7 μmol/kg i.p., single, 60 minutes after administration vs before administration; for grade of effect on % change from the baseline in the number of scratchings: single i.p., 53.7 μmol/kg (GLPG-0187 5.37 μmol/kg), paired t-test
Excerpt: Nestin-cre transgenic mice were crossed with IKK2^ff mice to prepare Nestin-cre/Ikk2^ff mice specifically lacking IKK2 in their facial skin fibroblasts (Nunomura S, et al. J Invest Dermatol. 139:1274-1283, 2019). These mice inevitably develop atopic dermatitis-like rash limited to the face and intense itchy symptoms, and were therefore designated as Facial Atopic Dermatitis with Scratching (FADS) mice. […] For evaluation of the prophylactic or therapeutic agent of the present invention, FADS mice at 3 to 4 weeks of age or older were used because of showing spontaneous scratching behaviors. It should be noted that in this Example section, the above compound of formula (I) (more particularly “CP4715”) was used as the prophylactic or therapeutic agent of the present invention.
FADS mice were acclimated for 20 minutes to the environment of a recording cage, and then recorded with a video camera. The recorded videos were replayed, and scratching behaviors were counted assuming that hind paw scratching to the face and the subsequent movement of toe licking or paw lowering to the ground were regarded as one cycle of scratching behavior.
Prior to the administration of the above αvβ3 integrin inhibitors, FADS mice were recorded for 60 minutes with a video camera and then allowed to rest for 15 minutes. The compounds except for GLPG-0187 were each dissolved at 89.5 mM in a diluent (physiological saline containing 50% DMSO and 89.5 mM HCL), from which an amount corresponding to 53.7 μmol/kg per mouse was then taken and diluted with 0.3 mL of PBS, and then administered intraperitoneally. […] Mice administered with 0.3 mL of PBS containing an equal amount of the diluent as calculated based on the body weight were used as a control group.
The mice were recorded for 60 minutes with a video camera immediately after administration of the above αvβ3 integrin inhibitors. The number of scratchings before administration was used as a baseline, and % change from the baseline after administration was calculated for each compound. For statistical analysis, paired t-test was used. A P-value of less than 0.05 was considered to be statistically significant. The effect of an inhibitor whose mean change from the baseline was −65% or more at a P-value of less than 0.01 was expressed as “++”; the effect of an inhibitor whose mean change from the baseline was −60% or less at a P-value of less than 0.05 was expressed as “+”; and the effect of an inhibitor whose mean change from the baseline was −60% or less at a P-value of 0.05 or higher was expressed as “−.”

integrin αvβ3 [2] = biological target: T1, integrin αvβ3 (Homo sapiens, UniProt P05106+P06756); assay: Inhibition of periostin-dependent adhesion of SW480 cells expressing integrin αvβ3; assay type: cell-based; settings: immobilized recombinant human periostin, FIG. 6; for IC50: SW480 cells expressing human integrin β3, compounds at 0.001-1 μM, read-out: 50% inhibition concentration (IC50 value) for cell adhesion inhibitory activity; for cell adhesion inhibitory effect (in words): SW480 cells expressing integrin αvβ3
T1 construct: SW480 cells, a human colon cancer cell line not expressing integrin β3; expressed in transfected cells; host or cells: SW480 cells (human colon cancer) stably expressing human integrin β3
T1 sequence (P06756 31-889 limits assumed): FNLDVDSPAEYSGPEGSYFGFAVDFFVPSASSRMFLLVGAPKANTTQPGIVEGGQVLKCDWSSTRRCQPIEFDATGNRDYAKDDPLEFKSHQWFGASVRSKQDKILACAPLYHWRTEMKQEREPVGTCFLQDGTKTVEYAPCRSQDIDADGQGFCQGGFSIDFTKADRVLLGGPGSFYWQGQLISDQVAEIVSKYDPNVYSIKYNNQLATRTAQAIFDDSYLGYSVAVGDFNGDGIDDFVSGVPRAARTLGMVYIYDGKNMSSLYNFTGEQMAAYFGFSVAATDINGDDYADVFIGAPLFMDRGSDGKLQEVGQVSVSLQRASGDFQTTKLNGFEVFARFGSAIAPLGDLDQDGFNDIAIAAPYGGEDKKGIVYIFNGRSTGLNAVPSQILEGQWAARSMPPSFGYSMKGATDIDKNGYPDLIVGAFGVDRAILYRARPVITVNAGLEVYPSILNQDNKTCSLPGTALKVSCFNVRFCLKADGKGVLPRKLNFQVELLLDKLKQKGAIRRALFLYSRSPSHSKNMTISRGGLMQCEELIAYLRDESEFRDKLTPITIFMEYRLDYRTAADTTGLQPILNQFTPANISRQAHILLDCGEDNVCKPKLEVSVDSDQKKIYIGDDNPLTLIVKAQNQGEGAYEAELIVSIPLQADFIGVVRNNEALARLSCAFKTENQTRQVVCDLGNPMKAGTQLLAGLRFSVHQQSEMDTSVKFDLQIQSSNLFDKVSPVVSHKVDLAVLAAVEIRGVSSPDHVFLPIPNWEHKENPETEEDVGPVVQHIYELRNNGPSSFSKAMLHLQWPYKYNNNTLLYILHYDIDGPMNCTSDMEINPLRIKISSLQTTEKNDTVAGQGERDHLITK
T1 sequence (P06756 891-1048 partner limits assumed): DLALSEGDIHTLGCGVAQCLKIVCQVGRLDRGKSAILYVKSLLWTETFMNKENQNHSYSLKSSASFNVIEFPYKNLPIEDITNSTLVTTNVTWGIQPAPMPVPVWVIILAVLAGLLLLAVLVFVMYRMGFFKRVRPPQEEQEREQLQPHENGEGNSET
T1 sequence (P05106 27-788): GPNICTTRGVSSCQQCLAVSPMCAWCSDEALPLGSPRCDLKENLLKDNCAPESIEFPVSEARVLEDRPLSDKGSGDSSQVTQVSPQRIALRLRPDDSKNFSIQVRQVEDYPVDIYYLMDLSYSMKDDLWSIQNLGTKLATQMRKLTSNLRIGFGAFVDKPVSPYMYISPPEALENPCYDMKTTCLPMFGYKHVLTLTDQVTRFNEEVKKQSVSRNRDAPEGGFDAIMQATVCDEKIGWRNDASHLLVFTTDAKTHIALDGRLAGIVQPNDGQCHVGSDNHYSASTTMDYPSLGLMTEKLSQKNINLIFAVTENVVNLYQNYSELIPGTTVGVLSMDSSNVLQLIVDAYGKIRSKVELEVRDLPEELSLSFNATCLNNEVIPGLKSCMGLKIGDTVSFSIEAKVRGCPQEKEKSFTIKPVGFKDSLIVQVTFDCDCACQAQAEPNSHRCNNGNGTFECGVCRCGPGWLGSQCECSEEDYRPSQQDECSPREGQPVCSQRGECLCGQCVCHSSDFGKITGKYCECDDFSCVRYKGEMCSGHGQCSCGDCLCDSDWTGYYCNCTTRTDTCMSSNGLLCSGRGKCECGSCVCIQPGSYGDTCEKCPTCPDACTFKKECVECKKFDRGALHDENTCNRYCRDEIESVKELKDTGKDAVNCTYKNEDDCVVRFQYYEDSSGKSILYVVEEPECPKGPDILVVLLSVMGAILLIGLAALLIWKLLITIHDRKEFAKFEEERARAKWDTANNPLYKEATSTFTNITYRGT
Description: For use in cell adhesion experiments, SW480 cells, a human colon cancer cell line not expressing integrin β3, were genetically engineered to stably express human integrin β3 (Nanri Y, et al. Am J Respir Cell Mol Biol. 62:204-216, 2020). The compounds shown in Table 1 were examined for their inhibitory activity against adhesion between integrin αvβ3 and periostin according to the following procedures. First, a 96-well plate was treated with 10 μg/mL recombinant human periostin (Bio-Techne) at 4 °C for 16 hours to immobilize periostin. The SW480 cells expressing integrin αvβ3 (5×10^4 cells) were reacted at room temperature for 15 minutes with the above compounds at 0.001, 0.01, 0.1 and 1 μM in serum-free DMEM (Dulbecco's Modified Eagle Medium) containing 0.5% bovine serum albumin and 0.25 mM MnCl2. A group receiving no compound was used as a control. The reacted cell suspensions were added to separate wells of the above human periostin-immobilized plate, and the plate was centrifuged at 10×g for 5 minutes and then cultured at 37 °C for 60 minutes. Then, after the adhered cells were washed to remove unbound cells, the adhered cells were fixed with 1% formaldehyde and stained with 0.5% crystal violet. The fixed and stained cells were solubilized with 0.2% Triton X-100 and measured for absorbance at 595 nm. The absorbance of the control (i.e., the group receiving no compound) was set to 0% inhibition. […] Cell adhesion in this test system is periostin-dependent, and a compound inhibiting this cell adhesion can be referred to as a periostin receptor antagonist.

integrin αvβ3 [3] = settings: cited from earlier work
IL-31 receptor = settings: Kabashima K, et al. N Engl J Med. 383:141-150, 2020; cited from earlier work

- IC50 (integrin αvβ3 [2]): ≤ 20 nM
- cell adhesion inhibitory effect (in words) (integrin αvβ3 [2]): moderate
Molecule: O=C(O)C[C@@H]1Cc2ccc(OCCCNc3ccccn3)cc2CN(CC(F)(F)F)C1=O [SB-267268, (S)-2-(3-oxo-8-(3-(pyridin-2-ylamino)propoxy)-2-(2,2,2-trifluoroethyl)-2,3,4,5-tetrahydro-1H-benzo[c]azepin-4-yl)acetic acid]
- % Change from baseline in the number of scratchings (mean ± standard error) [1]: −5.5 ± 13.4%
- grade of effect on % change from the baseline in the number of scratchings [1]: − (mean change from the baseline was −60% or less at a P-value of 0.05 or higher)

- IC50 (integrin αvβ3 [2]): ≤ 20 nM
- cell adhesion inhibitory effect (in words) (integrin αvβ3 [2]): moderate
Molecule: CNc1cccc(CCOc2ccc3c(c2)CN(CC(F)(F)F)C(=O)[C@H](CC(=O)O)C3)n1 [SB-273005, (S)-2-(8-(2-(6-(methylamino)pyridin-2-yl)ethoxy)-3-oxo-2-(2,2,2-trifluoroethyl)-2,3,4,5-tetrahydro-1H-benzo[c]azepin-4-yl)acetic acid]
- % Change from baseline in the number of scratchings (mean ± standard error) [1]: −33.0 ± 11.6%
- grade of effect on % change from the baseline in the number of scratchings [1]: + (mean change from the baseline was −60% or less at a P-value of less than 0.05)

- cell adhesion inhibitory effect (in words) (integrin αvβ3 [2]): moderate
Molecule: N=C(N)Nc1cccc(C(=O)NCC(=O)NC(CC(=O)O)c2cc(Cl)cc(Cl)c2)c1 (centres unmarked) [SC-68448, 3-(3,5-Dichlorophenyl)-3-(2-(3-guanidinobenzamido)acetamido)propanoic acid]
- % Change from baseline in the number of scratchings (mean ± standard error) [1]: −83.8 ± 7.7%
- grade of effect on % change from the baseline in the number of scratchings [1]: ++ (mean change from the baseline was −65% or more at a P-value of less than 0.01)
- inhibition of binding between integrin αvβ3 and vitronectin (integrin αvβ3 [3]): inhibit binding

- IC50 (integrin αvβ3 [2]): ≤ 100 nM
- cell adhesion inhibitory effect (in words) (integrin αvβ3 [2]): low
Molecule: Cc1cc(C)c(S(=O)(=O)N[C@@H](CNC(=O)c2ccc3c(cnn3CCCNc3ncc[nH]3)c2)C(=O)O)c(C)c1 [SM-256, (S)-3-(1-(3-((1H-imidazol-2-yl)amino)propyl)-1H-indazole-5-carboxamido)-2-((2,4,6-trimethylphenyl)sulfonamido)propanoic acid]
- % Change from baseline in the number of scratchings (mean ± standard error) [1]: −22.5 ± 19.6%

Further lines, the molecule ahead of its results:

Molecule: CC(C)COC(=O)N[C@@H](CCC(=O)N1CCN(c2cccc(NC3=NCC(F)CN3)c2)CC1)C(=O)O (stereo partly drawn) [BS-1417, (2S)-5-(4-(3-((5-fluoro-1,4,5,6-tetrahydropyrimidin-2-yl)amino)phenyl)piperazin-1-yl)-2-((isobutoxycarbonyl)amino)-5-oxopentanoic acid]
- % Change from baseline in the number of scratchings (mean ± standard error) [1]: −43.3 ± 11.9%
- grade of effect on % change from the baseline in the number of scratchings [1]: + (mean change from the baseline was −60% or less at a P-value of less than 0.05)
- IC50 (integrin αvβ3 [2]): ≥ 1000 nM

Molecule: O=C(NC[C@H](NS(=O)(=O)c1ccccc1)C(=O)O)c1ccc(N2CCC(NC3=NCCCN3)CC2)c(F)c1 [CP derivative 2, (S)-3-(3-fluoro-4-(4-((1,4,5,6-tetrahydropyrimidin-2-yl)amino)piperidin-1-yl)benzamido)-2-(phenylsulfonamido)propanoic acid]
- % Change from baseline in the number of scratchings (mean ± standard error) [1]: −30.2 ± 18.6%
- grade of effect on % change from the baseline in the number of scratchings [1]: − (mean change from the baseline was −60% or less at a P-value of 0.05 or higher)
- IC50 (integrin αvβ3 [2]): ≤ 1 nM
- cell adhesion inhibitory effect (in words) (integrin αvβ3 [2]): high

Molecule: O=C(NC[C@H](NS(=O)(=O)c1ccccc1)C(=O)O)c1ccc(N2CCC[C@H](NC3=NCCCN3)C2)cc1F [CP derivative 7, (S)-3-(2-fluoro-4-((S)-3-((1,4,5,6-tetrahydropyrimidin-2-yl)amino)piperidin-1-yl)benzamido)-2-(phenylsulfonamido)propanoic acid]
- % Change from baseline in the number of scratchings (mean ± standard error) [1]: −52.0 ± 26.6%
- grade of effect on % change from the baseline in the number of scratchings [1]: − (mean change from the baseline was −60% or less at a P-value of 0.05 or higher)
- IC50 (integrin αvβ3 [2]): ≤ 1 nM
- cell adhesion inhibitory effect (in words) (integrin αvβ3 [2]): high

Molecule: O=C(NC[C@H](NS(=O)(=O)c1cccs1)C(=O)O)c1ccc(N2CCC[C@H](NC3=NCCCN3)C2)cc1 [CP derivative 9, (S)-3-(4-((S)-3-((1,4,5,6-tetrahydropyrimidin-2-yl)amino)piperidin-1-yl)benzamido)-2-(thiophene-2-sulfonamido)propanoic acid]
- % Change from baseline in the number of scratchings (mean ± standard error) [1]: −24.5 ± 19.9%
- grade of effect on % change from the baseline in the number of scratchings [1]: − (mean change from the baseline was −60% or less at a P-value of 0.05 or higher)
- IC50 (integrin αvβ3 [2]): ≤ 1 nM
- cell adhesion inhibitory effect (in words) (integrin αvβ3 [2]): high

Molecule: CC(C)[C@H]1C(=O)N[C@@H](CCCNC(=N)N)C(=O)NCC(=O)N[C@@H](CC(=O)O)C(=O)N[C@H](Cc2ccccc2)C(=O)N1C [Cilengitide, 2-((2S,5R,8S,11S)-5-benzyl-11-(3-guanidinopropyl)-8-isopropyl-7-methyl-3,6,9,12,15-pentaoxo-1,4,7,10,13-pentaazacyclopentadecan-2-yl)acetic acid]
- % Change from baseline in the number of scratchings (mean ± standard error) [1]: −31.7 ± 17.8%

Molecule: O=C(O)C[C@H]1Cc2ccc(OCCCNc3ccccn3)cc2CN(CC(F)(F)F)C1=O [SB-267268 enantiomer, (R)-2-(3-oxo-8-(3-(pyridin-2-ylamino)propoxy)-2-(2,2,2-trifluoroethyl)-2,3,4,5-tetrahydro-1H-benzo[c]azepin-4-yl)acetic acid]
- % Change from baseline in the number of scratchings (mean ± standard error) [1]: +45.5 ± 28.8%
- IC50 (integrin αvβ3 [2]): ≥ 1000 nM

B1: nemolizumab: anti-IL-31 receptor antibody (antibody, chains of the INN, looked up)
heavy: QVQLVQSGAEVKKPGASVKVSCKASGYTFTGYIMNWVRQAPGQGLEWMGLINPYNGGTDYNPQFQDRVTITADKSTSTAYMELSSLRSEDTAVYYCARDGYDDGPYTLETWGQGTLVTVSSASTKGPSVFPLAPSSKSTSGGTAALGCLVKDYFPEPVTVSWNSGALTSGVHTFPAVLQSSGLYSLSSVVTVPSSNFGTQTYTCNVDHKPSNTKVDKTVERKSCVECPPCPAPPVAGPSVFLFPPKPKDTLMISRTPEVTCVVVDVSQEDPEVQFNWYVDGVEVHNAKTKPREEQFNSTFRVVSVLTVVHQDWLNGKEYKCKVSNKGLPAPIEKTISKTKGQPREPQVYTLPPSQEEMTKNQVSLTCLVKGFYPSDIAVEWESNGQPENNYKTTPPMLDSDGSFFLYSKLTVDKSRWQEGNVFSCSVMHEALHNHYTQKSLSLSP
light: DIQMTQSPSSLSASVGDRVTITCQASEDIYSFVAWYQQKPGKAPKLLIYNAQTEAQGVPSRFSGSGSGTDFTLTISSLQPEDFATYYCQHHYDSPLTFGGGTKVEIKRTVAAPSVFIFPPSDEQLKSGTASVVCLLNNFYPREAKVQWKVDNALQSGNSQESVTEQDSKDSTYSLSSTLTLSKADYEKHKVYACEVTHQGLSSPVTKSFNRGEC
- pruritus (IL-31 receptor): improve pruritus
- skin inflammation (IL-31 receptor): improving effect on skin inflammation
